# Measured values from patent publication EP4523686A1, “A SIGMA-1 RECEPTOR POSITIVE MODULATOR FOR ITS USE IN THE PREVENTION AND THE TREATMENT OF A PATHOLOGY” (priority 2023, dated 2025).
# “And” between values parts separate entries of the source, which are not always exact repeats. Equal entries are not always repeated.
# Experiments:
# 5-HT3 receptor = target: T1, 5-HT3 receptor (Homo sapiens, UniProt P46098); assay: CEREP in vitro binding assay (pharmacological profiling)
# T1 construct: CEREP
# T1 sequence (P46098 24-478): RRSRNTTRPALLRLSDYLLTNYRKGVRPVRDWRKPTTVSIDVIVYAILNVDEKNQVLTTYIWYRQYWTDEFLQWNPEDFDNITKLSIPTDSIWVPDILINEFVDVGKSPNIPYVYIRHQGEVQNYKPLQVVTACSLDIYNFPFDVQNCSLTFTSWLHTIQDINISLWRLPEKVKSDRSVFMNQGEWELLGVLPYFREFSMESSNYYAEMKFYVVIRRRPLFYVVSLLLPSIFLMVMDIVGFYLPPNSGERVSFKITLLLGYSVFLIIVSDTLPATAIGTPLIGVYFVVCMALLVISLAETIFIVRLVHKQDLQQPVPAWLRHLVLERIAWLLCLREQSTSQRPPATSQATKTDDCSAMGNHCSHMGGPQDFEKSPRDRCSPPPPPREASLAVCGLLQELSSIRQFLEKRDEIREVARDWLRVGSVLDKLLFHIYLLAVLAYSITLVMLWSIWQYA
# Experimental: (§1) Table 1 represents pharmacological profiling of convolamine which was tested at […] and 1 µM in in vitro binding assays designed with appropriate reference compounds in duplicates at CEREP facility.
# CB2 receptors = target: T2, CB2 receptors (Homo sapiens, UniProt P34972); assay: as above; conditions: at micromolar concentrations; range given jointly for CB2, Kv, 5-HT3
# T2 construct: CEREP
# T2 sequence (P34972 whole entry): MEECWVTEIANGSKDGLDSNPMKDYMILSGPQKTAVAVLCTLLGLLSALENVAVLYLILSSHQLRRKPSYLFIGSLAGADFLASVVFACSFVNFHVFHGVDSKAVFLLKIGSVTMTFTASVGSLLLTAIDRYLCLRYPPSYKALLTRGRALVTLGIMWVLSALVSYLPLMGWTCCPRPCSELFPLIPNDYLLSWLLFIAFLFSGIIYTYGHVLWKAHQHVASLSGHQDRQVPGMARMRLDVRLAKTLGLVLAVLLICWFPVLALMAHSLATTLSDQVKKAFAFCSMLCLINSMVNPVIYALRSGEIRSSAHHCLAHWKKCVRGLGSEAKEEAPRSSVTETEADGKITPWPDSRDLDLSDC
# Experimental: as §1
# Wfs1^ΔExon8 mice [1] = assay: Step-through passive avoidance, Wolfram syndrome mouse model; assay type: in vivo; conditions: IP 20 min before training, retention 24 h after training
# Excerpt: The apparatus is a two-compartments (15 × 20 × 15 cm high) box with one illuminated with white polyvinylchloride walls and the other darkened with black polyvinylchloride walls and a grid floor. A guillotine door separates each compartment. A 60 W lamp positioned 40 cm above the apparatus lights up the white compartment during the experiment. Scrambled foot shocks (0.3 mA for 3 s) could be delivered to the grid floor using a shock generator scrambler (Lafayette Instruments, Lafayette, USA). The guillotine door was initially closed during the training session. Each mouse was placed into the white compartment. After 5 s, the door was raised. When the mouse entered the darkened compartment and placed all its paws on the grid floor, the door is closed and the foot shocks delivered for 3 s. The step-through latency (STL-Tg), that is, the latency spent to enter the darkened compartment, and the number of vocalizations were recorded. The retention test was carried out 24 h after training. Each mouse was placed again into the white compartment. After 5 s, the door was raised. The step-through latency (STL-R) was recorded up to 300 s (Meunier et al., 2006, 2013; Villard et al., 2009, 2011). An exclusion criteria was STL-Tg and STL-R < 10 s. Animals showing these readouts are excluded from the calculations. Attrition is routinely < 5% in this test.
# SIG-1R/BiP = target: T3, SIG-1R/BiP (Homo sapiens, UniProt Q99720); assay: SIG-1R/BiP dissociation assay in GFP-SIG-1R-overexpressing CHO cells; assay type: cell-based; conditions: for dissociation of SIG-1R from BiP (in words) / dissociation of the SIG-1R/BiP complex (in words): compound alone; for dissociation of the SIG-1R/BiP complex (in words): no concentration stated
# T3 construct: host or cells: CHO cells overexpressing GFP-SIG-1R
# T3 sequence (Q99720 whole entry): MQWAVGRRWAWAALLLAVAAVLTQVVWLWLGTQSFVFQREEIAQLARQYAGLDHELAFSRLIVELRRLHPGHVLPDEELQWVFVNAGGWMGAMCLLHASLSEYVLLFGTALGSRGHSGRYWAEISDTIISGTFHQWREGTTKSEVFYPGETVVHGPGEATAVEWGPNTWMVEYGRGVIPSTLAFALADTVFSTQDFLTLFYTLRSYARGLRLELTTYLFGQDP
# Experimental: CHO cells which overexpress GFP tagged-SIG-1R (gift from Tsung-Ping Su, NIDA/NIH, Baltimore, MD, USA) were maintained in DMEM/Glutamax culture medium supplemented with 10% heat inactivated FBS. GFP-SIG-1Roe CHO cells were plated in 6-well plates and treated with test compounds dissolved in culture medium for 30 min at 37°C. The reaction was terminated by removing the culture medium containing the test drug and replacing it with 1 ml of PBS. GFP-SIG-1R-oe CHO cells were harvested and suspended in PBS (pH 7.4) followed by cross-linking with 50 µg/ml of dithiobis succinimidyl propionate (ThermoFisher, France). The reaction was stopped by adding Tris/HCl 50 mM (pH 8.8). After a 15 min incubation on ice, cells were lysed with 50 mM Tris (pH 7.4), 150 mM NaCl, 1% Triton X/100, 0.3% sodium deoxycholate, 0.1% SDS buffer containing a protease inhibitor cocktail (Sigma-Aldrich, France). After centrifugation at 16,000 g for 1 min, the supernatant was incubated with Chromotek GFP-trap agarose (Proteintech, United Kingdom) overnight at 4°C.
# [2] = Summary of the in vivo tests (active dose range); conditions: dizocilpine-induced amnesia and Aβ25-35 tests
# Excerpt: A characteristic of SIG-1R positive modulators, likely due to the chaperone nature of SIG-1R, is to behave in vivo as agonists (Vavers et al., 2019).
# Wfs1^ΔExon8 mice [3] = assay: Active avoidance in the rectangular water-maze, Wolfram syndrome mouse model; assay type: in vivo
# Experimental: Non-spatial long-term memory was also examined using the successive training, place-learning procedure in the rectangular water-maze (Maurice et al., 1995, 2018). The apparatus is a black Plexiglas rectangular pool (30 × 60 × 36 cm high), filled with water at a high of 25 cm. The water temperature was maintained at 23 ± 1°C. A transparent Plexiglas platform (5 × 8.5 × 0.5 cm) was fixed in the southeast corner of the pool, 1 cm below the water surface. On acquisition days 1 and 2, each mouse was placed at the middle of the west side of the pool, facing the wall, and the latency to find the platform was recorded up to 60 s. The mouse was allowed to remain on it for 20 s, and then removed from the pool into its home cage. […] Each animal was run in this manner for a total of 5 trials on day 1, and 3 trials on day 2. […] A short-term memory (STM) index was defined as the mean difference in swimming duration between trial n and trial n-1 for trials 2 to 5 and 7 to 8. The STM index was analysed vs. zero level (= no improvement). On day 4, 48 h after the last training session, animals were tested for retention. The platform was removed. Each mouse was again placed at the starting point and observed for 60 s. The latency to reach the original platform location and the time spent on the platform location was recorded.
# 5-HT1B receptor = target: T4, 5-HT1B receptor (Homo sapiens, UniProt P28222); assay: CEREP in vitro binding assay (pharmacological profiling)
# T4 construct: CEREP
# T4 sequence (P28222 whole entry): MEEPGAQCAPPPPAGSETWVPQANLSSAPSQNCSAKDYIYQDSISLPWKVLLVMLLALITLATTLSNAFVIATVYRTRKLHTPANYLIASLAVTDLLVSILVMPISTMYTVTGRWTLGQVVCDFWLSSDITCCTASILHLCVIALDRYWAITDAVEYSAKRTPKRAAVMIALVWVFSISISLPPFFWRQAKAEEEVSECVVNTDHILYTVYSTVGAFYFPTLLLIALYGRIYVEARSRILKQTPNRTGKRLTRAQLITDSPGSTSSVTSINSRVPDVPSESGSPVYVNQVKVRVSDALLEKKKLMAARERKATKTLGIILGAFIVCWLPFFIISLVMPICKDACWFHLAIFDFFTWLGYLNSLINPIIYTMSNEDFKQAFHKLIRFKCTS
# [4] = probe test without platform, no drug injection
compound,measurement,setting,value
"COc1ccc(C(=O)OC2CC3CCC(C2)N3C)cc1OC (stereo not drawn) [Convolamine, (8-methyl-8-azabicyclo[3.2.1]octan-3-yl) 3,4-dimethoxybenzoate]",inhibition at 0.1 µM,"5-HT3 receptor; 0.1 µM, duplicates",16.2%
same,inhibition at 1 µM,"5-HT3 receptor; 1 µM, duplicates",61.7%
same,inhibition of binding on the 5-HT3 receptor (in words),5-HT3 receptor; at 1 µM,partial inhibition
same,inhibitions of the selective radiotracer,"5-HT3 receptor; at micromolar concentrations, range given jointly for CB2, Kv, 5-HT3",20-60%
same,inhibitions of the selective radiotracer,CB2 receptors,20-60%
same,step-through latency deficit during retention (in words),Wfs1^ΔExon8 mice [1],attenuated the deficit
same,IC50,"SIG-1R/BiP; IC50 of SIG-1R positive modulatory action (displacement of PRE-084 efficacy to dissociate SIG-1R from BiP), convolamine 0.1-10 µM with PRE-084",290 nM and 289 nM
same,dissociation of SIG-1R from BiP (in words),SIG-1R/BiP; at concentrations < 10 µM,failed to dissociate SIG-1R from BiP
same,dissociation of SIG-1R from BiP (in words),SIG-1R/BiP; at concentrations up to 30 µM,failed to dissociate SIG-1R from BiP
same,dissociation of the SIG-1R/BiP complex (in words),SIG-1R/BiP,did not induce the dissociation
same,dissociation of the SIG-1R/BiP complex (in words),SIG-1R/BiP; listed as convolamine,does not allow the dissociation
same,active dose,[2],0.3 to 3 mg/kg
same,mild deficit of STM index (in words),Wfs1^ΔExon8 mice [3]; IP 20 min before training sessions,not observed
same,latency to reach the platform location in the probe test (in words),Wfs1^ΔExon8 mice [3]; [4],attenuated these differences
same,number of platform location crossings in the probe test (in words),Wfs1^ΔExon8 mice [3]; [4],attenuated these differences
same,stimulation of specific binding,5-HT1B receptor,30-40%
same,inhibition at 0.1 µM,"5-HT1B receptor; 0.1 µM, duplicates, negative = stimulation of binding",-33%
same,inhibition at 1 µM,"5-HT1B receptor; 1 µM, duplicates, negative = stimulation of binding",-38.6%
